The results in this text go back to patent US20110195900A1, “PEPTIDIC PTH RECEPTOR AGONISTS” (FERRING B.V., priority 2008, published 2011).

Each structure is given as a SMILES string. Non-standard residues stand in square brackets, D forms with d. Residues, ends and D or L forms follow the SMILES beside them. 1Nal = N[C@@H](Cc1cccc2ccccc12)C(=O)O; β3hI = CC[C@H](C)[C@H](N)CC(=O)O; hSer = N[C@@H](CCO)C(=O)O; Nle = CCCC[C@H](N)C(=O)O; β3hA = C[C@H](N)CC(=O)O; βAla = NCCC(=O)O

Usually EC50 stands for the concentration needed to bring the measured effect to its halfway point. A lower EC50 goes with a more potent agent.

One experiment concerns the target T1, human PTH-1 receptor (Homo sapiens, UniProt Q03431).
T1 construct: expressed in transfected cells; host or cells: HEK-293
T1 sequence (Q03431 27-593): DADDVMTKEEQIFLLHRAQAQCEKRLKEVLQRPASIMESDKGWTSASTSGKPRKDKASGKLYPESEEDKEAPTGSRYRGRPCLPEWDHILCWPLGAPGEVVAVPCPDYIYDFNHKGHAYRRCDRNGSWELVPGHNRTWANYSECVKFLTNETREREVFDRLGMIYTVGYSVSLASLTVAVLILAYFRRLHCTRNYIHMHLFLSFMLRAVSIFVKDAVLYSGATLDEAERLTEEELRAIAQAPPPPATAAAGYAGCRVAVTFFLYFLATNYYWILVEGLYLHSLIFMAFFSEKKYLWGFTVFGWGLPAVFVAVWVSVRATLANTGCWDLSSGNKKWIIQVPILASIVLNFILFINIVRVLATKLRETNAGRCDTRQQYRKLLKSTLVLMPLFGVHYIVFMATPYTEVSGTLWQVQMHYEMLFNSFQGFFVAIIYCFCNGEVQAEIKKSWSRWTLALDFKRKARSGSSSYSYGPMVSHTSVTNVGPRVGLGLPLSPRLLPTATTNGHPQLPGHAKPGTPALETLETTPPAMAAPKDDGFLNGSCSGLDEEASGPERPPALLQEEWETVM
Briefly: Reporter gene assay (CRE-luciferase) for agonist activity in transiently transfected HEK-293 cells. The class given is cell-based. The note with it: for hPTHR-2/hPTHR-1: Table 3, selectivity for hPTH-1 receptor over hPTH-2 receptor; for hPTHR-2/hPTHR-1 / Selectivity hPTHR-2/hPTHR-1: ratio of EC50 values; for Selectivity hPTHR-2/hPTHR-1: Table 4 comparison data. A digest of the protocol: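 Selectivity came from luciferase transcriptional reporter assays expressing human PTH-2 receptor. PTH-1 agonism used transiently transfected HEK-293 cells carrying SV40-promoter receptor and cAMP-responsive-element luciferase; 4-5 h compound exposure, lysis, luminescence, non-linear-regression EC50/efficacy; ≥3 independent runs, PTH (1-34) control each.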
(Reporter assays use an easily measured gene product as a stand-in for the process of interest.)

For the next experiment, the target named is T2, human PTH-2 receptor (Homo sapiens, UniProt P49190).
T2 construct: expressed in transfected cells
Briefly: Luciferase-based transcriptional reporter gene assay for selectivity. In kind it is cell-based. The procedure:
Agonist activity of compounds on the human PTH-1 receptor was determined in a reporter gene assay by transiently transfecting HEK-293 cells with plasmids encoding human PTH-1 receptor under control of the SV40 promoter and a luciferase reporter gene under control of cAMP responsive elements (CRE). See Himmler et al, J. Recept. Res. 13 (1993) 79-94, for further guidance on this assay. Transfected cells were exposed to serial dilutions of compounds for 4-5 hours followed by lysis of cells, determination of luciferase activity, and determination of compound efficacies and EC50 values through non-linear regression.
PTH (1-34) was used as an internal control in each experiment and compounds were tested in at least three independent experiments. To determine selectivity, compounds were tested in luciferase-based transcriptional reporter gene assays expressing the human PTH-2 receptor.

T2 sequence (P49190 25-550): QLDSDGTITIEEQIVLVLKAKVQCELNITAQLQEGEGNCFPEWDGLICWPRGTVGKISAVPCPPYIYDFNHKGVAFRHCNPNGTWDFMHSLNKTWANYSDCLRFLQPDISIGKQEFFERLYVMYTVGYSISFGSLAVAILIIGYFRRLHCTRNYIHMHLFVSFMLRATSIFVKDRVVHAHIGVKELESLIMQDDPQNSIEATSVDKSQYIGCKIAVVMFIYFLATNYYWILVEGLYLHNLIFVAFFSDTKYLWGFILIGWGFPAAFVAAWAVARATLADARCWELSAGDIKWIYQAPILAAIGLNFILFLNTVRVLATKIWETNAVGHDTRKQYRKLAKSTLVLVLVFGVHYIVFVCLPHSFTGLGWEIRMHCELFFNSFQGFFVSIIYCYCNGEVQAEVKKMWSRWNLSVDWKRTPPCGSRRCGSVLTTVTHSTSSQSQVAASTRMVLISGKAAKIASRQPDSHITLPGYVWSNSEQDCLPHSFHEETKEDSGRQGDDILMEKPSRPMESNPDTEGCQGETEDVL

Take `CC[C@H](C)[C@H](NC(=O)[C@H](CCC(=O)O)NC(=O)[C@H](CO)NC(=O)[C@@H](NC(=O)[C@@H](N)CO)C(C)C)C(=O)N[C@@H](CCC(N)=O)C(=O)N[C@@H](CC(C)C)C(=O)N[C@@H](CCOC)C(=O)N[C@@H](Cc1c[nH]cn1)C(=O)N[C@@H](CC(N)=O)C(=O)N[C@@H](CC(C)C)C(=O)NCC(=O)N[C@@H](CCCCN)C(=O)N[C@@H](Cc1c[nH]cn1)C(=O)N[C@@H](CC(C)C)C(=O)N[C@@H](CC(N)=O)C(=O)NCCC(=O)N[C@@H](CCOC)C(=O)N[C@@H](CCC(=O)O)C(=O)N[C@@H](CCCNC(=N)N)C(=O)N[C@H](C(=O)N[C@@H](CCC(=O)O)C(=O)N[C@@H](Cc1cccc2ccccc12)C(=O)N[C@@H](CC(C)C)C(=O)N[C@@H](CCCNC(=N)N)C(=O)N[C@@H](CCCCN)C(=O)N[C@@H](CC(C)C)C(=O)N[C@@H](CC(C)C)C(=O)N[C@@H](CCC(N)=O)C(=O)N[C@@H](CC(=O)O)C(=O)N[C@H](C(=O)N[C@@H](Cc1c[nH]cn1)C(=O)N[C@@H](CC(N)=O)C(=O)N[C@@H](Cc1ccccc1)C(N)=O)C(C)C)C(C)C` [SEQ ID NO: 17, [hSer(OMe)^8,18, β-Ala^17,1-Nal^23, Leu^27] hPTH(1-34)-NH2] (H-SVSEIQL[hSer](Me)HNLGKHLN[βAla][hSer](Me)ERVE[1Nal]LRKLLQDVHNF-NH2): the hPTHR-2/hPTHR-1 at human PTH-1 receptor is reported as greater than 300. In addition, the EC50 at human PTH-2 receptor was greater than 270 nM.

As for `CCCC[C@H](NC(=O)[C@H](CC(C)C)NC(=O)[C@H](CCC(N)=O)NC(=O)[C@@H](NC(=O)[C@H](CCC(=O)O)NC(=O)[C@H](CO)NC(=O)[C@@H](NC(=O)[C@@H](N)CO)C(C)C)[C@@H](C)CC)C(=O)N[C@@H](Cc1c[nH]cn1)C(=O)N[C@@H](CC(N)=O)C(=O)N[C@@H](CC(C)C)C(=O)NCC(=O)N[C@@H](CCCCN)C(=O)N[C@@H](Cc1c[nH]cn1)C(=O)N[C@@H](CC(C)C)C(=O)N[C@@H](CC(N)=O)C(=O)N[C@@H](CO)C(=O)N[C@@H](C)CC(=O)N[C@@H](CCC(=O)O)C(=O)N[C@@H](CCCNC(=N)N)C(=O)N[C@H](C(=O)N[C@@H](CCC(=O)O)C(=O)N[C@@H](Cc1cccc2ccccc12)C(=O)N[C@@H](CC(C)C)C(=O)N[C@@H](CCCNC(=N)N)C(=O)N[C@@H](CCCCN)C(=O)N[C@@H](CC(C)C)C(=O)N[C@@H](CC(C)C)C(=O)N[C@@H](CCC(N)=O)C(=O)N[C@@H](CC(=O)O)C(=O)N[C@H](C(=O)N[C@@H](Cc1c[nH]cn1)C(=O)N[C@@H](CC(N)=O)C(=O)N[C@@H](Cc1ccccc1)C(N)=O)C(C)C)C(C)C` [SEQ ID NO: 18, [Nle^8, β-hAla^18,1-Nal^23, Leu^27] hPTH (1-34)-NH2] (H-SVSEIQL[Nle]HNLGKHLNS[β3hA]ERVE[1Nal]LRKLLQDVHNF-NH2), at human PTH-1 receptor, the EC50 came to 0.22 nM, the hPTHR-2/hPTHR-1 was 281 and the “Selectivity hPTHR-2/hPTHR-1” value was determined as 281. The compound also displayed an EC50 at human PTH-2 receptor of 61 nM.

Consider `CCCC[C@H](NC(=O)[C@H](CC(C)C)NC(=O)[C@H](CCC(N)=O)NC(=O)[C@@H](NC(=O)[C@H](CCC(=O)O)NC(=O)[C@H](CO)NC(=O)[C@@H](NC(=O)[C@@H](N)CO)C(C)C)[C@@H](C)CC)C(=O)N[C@@H](Cc1c[nH]cn1)C(=O)N[C@@H](CC(N)=O)C(=O)N[C@@H](CC(C)C)C(=O)NCC(=O)N[C@@H](CCCCN)C(=O)N[C@@H](Cc1c[nH]cn1)C(=O)N[C@@H](CC(C)C)C(=O)N[C@@H](CC(N)=O)C(=O)N[C@@H](CO)C(=O)N[C@H](CC(=O)N[C@@H](CCC(=O)O)C(=O)N[C@@H](CCCNC(=N)N)C(=O)N[C@H](C(=O)N[C@@H](CCC(=O)O)C(=O)N[C@@H](Cc1cccc2ccccc12)C(=O)N[C@@H](CC(C)C)C(=O)N[C@@H](CCCNC(=N)N)C(=O)N[C@@H](CCCCN)C(=O)N[C@@H](CC(C)C)C(=O)N[C@@H](CC(C)C)C(=O)N[C@@H](CCC(N)=O)C(=O)N[C@@H](CC(=O)O)C(=O)N[C@H](C(=O)N[C@@H](Cc1c[nH]cn1)C(=O)N[C@@H](CC(N)=O)C(=O)N[C@@H](Cc1ccccc1)C(N)=O)C(C)C)C(C)C)[C@@H](C)CC` [SEQ ID NO: 19, [Nle^8, β-hIle^18,1-Nal^23, Leu^27] hPTH (1-34)-NH2] (H-SVSEIQL[Nle]HNLGKHLNS[β3hI]ERVE[1Nal]LRKLLQDVHNF-NH2), for which, at human PTH-1 receptor, a half-maximal effect (EC50) was put at 0.14 nM, the hPTHR-2/hPTHR-1 was determined as 224 and the “Selectivity hPTHR-2/hPTHR-1” value turned out to be 224. The same compound returned an EC50 on human PTH-2 receptor of 32 nM.

Take `CCCC[C@H](NC(=O)[C@H](CC(C)C)NC(=O)[C@H](CCC(N)=O)NC(=O)[C@@H](NC(=O)[C@H](CCC(=O)O)NC(=O)[C@H](CO)NC(=O)[C@@H](NC(=O)[C@@H](N)CO)C(C)C)[C@@H](C)CC)C(=O)N[C@@H](Cc1c[nH]cn1)C(=O)N[C@@H](CO)C(=O)N[C@@H](CC(C)C)C(=O)NCC(=O)N[C@@H](CCCCN)C(=O)N[C@@H](Cc1c[nH]cn1)C(=O)N[C@@H](CC(C)C)C(=O)N[C@@H](CC(N)=O)C(=O)N[C@@H](CO)C(=O)N[C@H](CC(=O)N[C@@H](CCC(=O)O)C(=O)N[C@@H](CCCNC(=N)N)C(=O)N[C@H](C(=O)N[C@@H](CCC(=O)O)C(=O)N[C@@H](Cc1cccc2ccccc12)C(=O)N[C@@H](CC(C)C)C(=O)N[C@@H](CCCNC(=N)N)C(=O)N[C@@H](CCCCN)C(=O)N[C@@H](CC(C)C)C(=O)N[C@@H](CC(C)C)C(=O)N[C@@H](CCC(N)=O)C(=O)N[C@@H](CC(=O)O)C(=O)N[C@H](C(=O)N[C@@H](Cc1c[nH]cn1)C(=O)N[C@@H](CC(N)=O)C(=O)N[C@@H](Cc1ccccc1)C(N)=O)C(C)C)C(C)C)[C@@H](C)CC` [SEQ ID NO: 23, [Nle^8, Ser^10, β-hIle^18,1-Nal^23, Leu^27] hPTH (1-34)-NH2] (H-SVSEIQL[Nle]HSLGKHLNS[β3hI]ERVE[1Nal]LRKLLQDVHNF-NH2): on human PTH-1 receptor, the EC50 was 0.18 nM and the hPTHR-2/hPTHR-1 came to 95. Also, a half-maximal response on human PTH-2 receptor (EC50) required 17 nM.

As for `CCCC[C@H](NC(=O)[C@H](CC(C)C)NC(=O)[C@H](CCC(N)=O)NC(=O)[C@@H](NC(=O)[C@H](CCC(=O)O)NC(=O)[C@H](CO)NC(=O)[C@@H](NC(=O)[C@@H](N)CO)C(C)C)[C@@H](C)CC)C(=O)N[C@@H](Cc1c[nH]cn1)C(=O)N[C@@H](CCC(=O)O)C(=O)N[C@@H](CC(C)C)C(=O)NCC(=O)N[C@@H](CCCCN)C(=O)N[C@@H](Cc1c[nH]cn1)C(=O)N[C@@H](CC(C)C)C(=O)N[C@@H](CC(N)=O)C(=O)N[C@@H](CO)C(=O)N[C@H](CC(=O)N[C@@H](CCC(=O)O)C(=O)N[C@@H](CCCNC(=N)N)C(=O)N[C@H](C(=O)N[C@@H](CCC(=O)O)C(=O)N[C@@H](Cc1cccc2ccccc12)C(=O)N[C@@H](CC(C)C)C(=O)N[C@@H](CCCNC(=N)N)C(=O)N[C@@H](CCCCN)C(=O)N[C@@H](CC(C)C)C(=O)N[C@@H](CC(C)C)C(=O)N[C@@H](CCC(N)=O)C(=O)N[C@@H](CC(=O)O)C(=O)N[C@H](C(=O)N[C@@H](Cc1c[nH]cn1)C(=O)N[C@@H](CC(N)=O)C(=O)N[C@@H](Cc1ccccc1)C(N)=O)C(C)C)C(C)C)[C@@H](C)CC` [SEQ ID NO: 24, [Nle^8, Glu^10, β-hIle^18,1-Nal^23, Leu^27] hPTH (1-34)-NH2] (H-SVSEIQL[Nle]HELGKHLNS[β3hI]ERVE[1Nal]LRKLLQDVHNF-NH2), on human PTH-1 receptor, the EC50 worked out at 0.13 nM and the hPTHR-2/hPTHR-1 was 24. Besides, on human PTH-2 receptor, the EC50 was determined as 3 nM.
